Assay results published in US8822448B2, “Pyrazoloquinoline compound” (Astellas Pharma Inc., priority 2010, dated 2014).
Where a name gives a salt, the structure may show the parent alone.

Assays:
PDE9 = PDE9 (Homo sapiens (Human), UniProt O76083); assay: PDE9-inhibiting activity (SPA enzyme assay); type: biochemical; conditions: IC50 values; cGMP 1 μM substrate, 30° C.; read-out: PDE9 inhibition
Protocol: The PDE9-inhibiting activity was measured by the following method. That is, to a buffer solution containing tris(hydroxymethyl)aminomethane-hydrochloric acid (40 mM, pH 8.0), magnesium chloride (5 mM), and 2-mercaptoethanol (4 mM) were added cGMP (1 μM) and ^3H-cGMP (0.33 μCi/ml) to give a substrate buffer solution. A test substance solution and an enzyme solution which had been adjusted to an optimal concentration were added thereto to perform a reaction at 30° C. The enzyme reaction was stopped by the addition of Scintillation Proximity Assay (SPA) Beads (Perkin Elmer, USA) containing 5 mM 3-isobutyl-1-methylxanthine (IBMX). For the enzyme activity, the amount of 5′-GMP, which is a reaction degradation product bound to SPA beads, was measured with a TopCount microplate reader (Hewlett Packard, USA). The inhibitory rate was calculated by taking the radioactivity of the control containing no test substance as (A), taking the radioactivity of the blank containing no enzyme as (B), and taking the radioactivity of the test substance as (C), and using the following equation.

Chain of PDE9 (O76083 whole entry): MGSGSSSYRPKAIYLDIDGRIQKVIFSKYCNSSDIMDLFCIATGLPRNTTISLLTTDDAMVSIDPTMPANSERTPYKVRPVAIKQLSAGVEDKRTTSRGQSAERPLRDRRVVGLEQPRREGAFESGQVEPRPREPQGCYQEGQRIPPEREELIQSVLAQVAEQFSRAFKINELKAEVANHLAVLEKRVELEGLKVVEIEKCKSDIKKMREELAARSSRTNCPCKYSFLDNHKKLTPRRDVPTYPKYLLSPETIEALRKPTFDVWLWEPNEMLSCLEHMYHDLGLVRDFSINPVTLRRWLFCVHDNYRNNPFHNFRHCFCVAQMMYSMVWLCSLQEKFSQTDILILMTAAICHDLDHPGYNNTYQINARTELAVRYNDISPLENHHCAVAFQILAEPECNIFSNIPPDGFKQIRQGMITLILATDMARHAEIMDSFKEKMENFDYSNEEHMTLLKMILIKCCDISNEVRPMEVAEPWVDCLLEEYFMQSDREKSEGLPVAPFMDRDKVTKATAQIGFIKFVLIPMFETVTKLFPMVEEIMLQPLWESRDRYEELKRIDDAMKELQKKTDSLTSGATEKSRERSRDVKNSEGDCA

Compound `Cc1cc2[nH]c(=O)c3cnn(C4CCOCC4)c3c2cc1C(=O)N1CCN(CCCOC(C)(C)C)CC1` [Example 77] has a melting point of 238 to 240 °C.
`O=C(c1ccc2c(c1)[nH]c(=O)c1cnn(C3CCOCC3)c12)N1CCc2cc(Cl)ccc21` [Example 12] gave an IC50 (PDE9) of 8.6 nM and a melting point of 341 to 343 °C.
Work on `Cc1cc2[nH]c(=O)c3cnn(C4CCOCC4)c3c2cc1C(=O)N1CCN(CCCOC(C)C)CC1` [Example 64] yielded a melting point of 122 to 124 °C.
Work on `Cc1nn(C2CCCC2)c2c1c(=O)[nH]c1cc(C(=O)N3CCc4cc(F)ccc43)ccc12` [Example 18] yielded a melting point of 321 to 323 °C.
Compound `O=C(c1ccc2c(c1)[nH]c(=O)c1cnn(C3CCCC3)c12)N1CCc2cc(Cl)ccc21` [Example 1, 7-[(5-chloro-2,3-dihydro-1H-indol-1-yl)carbonyl]-1-cyclopentyl-1,5-dihydro-4H-pyrazolo[4,3-c]quinolin-4-one] has an IC50 (PDE9) of 18 nM and a melting point of 291 to 294 °C.
Work on `CCN1CCN(C(=O)c2cc3c(cc2C)[nH]c(=O)c2cnn(C4CCOCC4)c23)CC1c1cccnc1` (stereo not shown) [Example 91] yielded a melting point of 272 to 274 °C.
`COCCCCN1CCN(C(=O)c2cc3c(cc2C)[nH]c(=O)c2cnn(CC4CCC4)c23)CC1` [Example 90] gave a melting point of 178 to 180 °C.
For `COCCCN1CCN(C(=O)c2cc3c(cc2C)[nH]c(=O)c2cnn(CC4CCC4)c23)CC1` [Example 97], the melting point was 186 to 188 °C.
`CCOCC1CN(C(=O)c2cc3c(cc2C)[nH]c(=O)c2cnn(C4CCOCC4)c23)C1` [Example 86] gave an IC50 (PDE9) of 3.3 nM and a melting point of 226 to 228 °C.
`COc1cc2c(cn1)N(C(=O)c1ccc3c(c1)[nH]c(=O)c1cnn(C4CCOCC4)c13)CC2` [Example 15] gave a melting point of 337 to 340 °C.
For `O=C(c1ccc2c(c1)[nH]c(=O)c1cnn(C3CCOCC3)c12)N1Cc2cccc(F)c2C1` [Example 19], the melting point was 312 to 318 °C (dec.).
For `COCCC1CCN(C(=O)c2cc3c(cc2C)[nH]c(=O)c2cnn(C4CCOCC4)c23)CC1` [Example 66], the IC50 (PDE9) was 4.3 nM and the melting point was 241 to 242 °C.
Work on `Cc1cc2[nH]c(=O)c3cnn(C4CCOCC4)c3c2cc1C(=O)N1CCC2(CCN(Cc3ccccc3)CC2)CC1` [Example 16] yielded an IC50 (PDE9) of 9.1 nM and a melting point of 221 to 224 °C.
With `O=C(c1ccc2c(c1)[nH]c(=O)c1cnn(C3CCOCC3)c12)N1CCOC(c2ccc(F)cc2)C1` (stereo not shown) [Example 14] the IC50 (PDE9) was 81 nM and the melting point was 293 to 296 °C.
For `Cc1cc2[nH]c(=O)c3cnn(C4CCOCC4)c3c2cc1C(=O)N1CCC(COC2CC2)CC1` [Example 217], the IC50 (PDE9) was 4.4 nM and the melting point was 210 to 211 °C.
`COCCN1CCN(C(=O)c2cc3c(cc2C)[nH]c(=O)c2cnn(C4CCOCC4)c23)C[C@@H]1c1ccccc1` [Example 47] gave a melting point of 218 to 220 °C.
With `Cc1cc2[nH]c(=O)c3cnn(C4CCOCC4)c3c2cc1C(=O)N1CCN(c2ccccn2)CC1` [Example 17] the IC50 (PDE9) was 2.1 nM and the melting point was 272 to 275 °C.
For `Cc1cc2[nH]c(=O)c3cnn(C4CCOCC4)c3c2cc1C(=O)N1CCN(C)C(c2ccccc2)C1` (stereo not shown) [Example 21], the melting point was 253 to 256 °C.
`O=C(c1ccc2c(c1)[nH]c(=O)c1cnn(C3CCOCC3)c12)N1CCOC(c2ccccc2F)C1` (stereo not shown) [Example 20] gave a melting point of 174 to 176 °C.
Work on `Cc1cc2[nH]c(=O)c3cnn(C4CCOCC4)c3c2cc1C(=O)N1CCOC(c2cccnc2)C1` (stereo not shown) [Example 48] yielded a melting point of 266 to 268 °C.
`O=C(c1ccc2c(c1)[nH]c(=O)c1cnn(C3CCOCC3)c12)N1CCCC(c2ccccc2)C1` (stereo not shown) [Example 11] showed a melting point of 298 to 301 °C.
Work on `COCCCCN1CCN(C(=O)c2cc3c(cc2C)[nH]c(=O)c2cnn(C4CCCC4)c23)CC1` [Example 67] yielded a melting point of 234 to 236 °C.
With `Cc1cc2[nH]c(=O)c3cnn(C4CCOCC4)c3c2cc1C(=O)N1CCN(Cc2cccnc2)CC1` (as salt: hydrochloride) [Example 2, 7-methyl-8-{[4-(pyridin-3-ylmethyl)piperazin-1-yl]carbonyl}-1-(tetrahydro-2H-pyran-4-yl)-1,5-dihydro-4H-pyrazolo[4,3-c]quinolin-4-one dihydrochloride] the melting point was 259 to 263 °C.
`COCC1CCN(C(=O)c2cc3c(cc2C)[nH]c(=O)c2cnn(C4CCOCC4)c23)CC1.Cl` [Example 28] showed an IC50 (PDE9) of 9.1 nM and a melting point of 253 to 255 °C.
For `Cc1cc2[nH]c(=O)c3cnn([C@H]4CCOC4)c3c2cc1C(=O)N1CCC(OC2CC2)CC1` [Example 218], the IC50 (PDE9) was 17 nM and the melting point was 197 to 198 °C.
`Cc1cc2[nH]c(=O)c3cnn(C4CCOCC4)c3c2cc1C(=O)N1CCC(OCC(C)(F)F)CC1` [Example 176] gave an IC50 (PDE9) of 8.4 nM and a melting point of 210 to 211 °C.
For `COCCCCN1CCN(C(=O)c2cc3c(cc2C)[nH]c(=O)c2cnn(CC4CC4)c23)CC1.Cl` [Example 103], the IC50 (PDE9) was 13 nM and the melting point was 207 to 208 °C.
With `Cc1cc2[nH]c(=O)c3cnn(C4CCOCC4)c3c2cc1C(=O)N1CCN(CCCc2cccnc2)CC1` [Example 57] the melting point was 254 to 256 °C.
Work on `Cc1cc2[nH]c(=O)c3cnn([C@H]4CCOC4)c3c2cc1C(=O)N1CCC(OCC(C)(F)F)CC1` [Example 191] yielded an IC50 (PDE9) of 9.5 nM.
In the case of `COCCCCN1C[C@H](C)N(C(=O)c2cc3c(cc2C)[nH]c(=O)c2cnn(C4CCOCC4)c23)C[C@H]1C` [Example 183], the IC50 (PDE9) is reported as 3.5 nM.
For `Cc1cc2[nH]c(=O)c3cnn(C4CCOCC4)c3c2cc1C(=O)N1C[C@@H](C)N(CCC(F)(F)F)C[C@@H]1C` [Example 184], the IC50 (PDE9) was 4.7 nM.
`CCOCCCN1CCN(C(=O)c2cc3c(cc2C)[nH]c(=O)c2cnn(C4CCOCC4)c23)CC1` [Example 63] showed an IC50 (PDE9) of 8.4 nM and a melting point of 217 to 219 °C.
`CCOCC1CCN(C(=O)c2cc3c(cc2C(F)(F)F)[nH]c(=O)c2cnn(C4CCOCC4)c23)CC1` [Example 152] showed an IC50 (PDE9) of 53 nM.
With `Cc1cc2[nH]c(=O)c3cnn(CC4CCC4)c3c2cc1C(=O)N1CCN(CCC(F)(F)F)[C@@H](C)C1` [Example 211] the IC50 (PDE9) was 1.2 nM.
In the case of `Cc1cc2[nH]c(=O)c3cnn(C4CCOCC4)c3c2cc1C(=O)N1CCC(C(F)(F)F)CC1` [Example 192], the IC50 (PDE9) is reported as 11 nM.
Work on `COCCCCN1CCN(C(=O)c2cc3c(cc2C)[nH]c(=O)c2cnn(C4CCC(F)(F)CC4)c23)C[C@@H]1C` [Example 193] yielded an IC50 (PDE9) of 5.7 nM.
Compound `Cc1cc2[nH]c(=O)c3cnn(C4CCOCC4)c3c2cc1C(=O)N1CCN(C)C(c2cccnc2)C1` (stereo not shown) [Example 49] has an IC50 (PDE9) of 3.9 nM and a melting point of 255 to 257 °C.
`CCOCCC1CCN(C(=O)c2cc3c(cc2C)[nH]c(=O)c2cnn(C4CCOCC4)c23)CC1` [Example 168] showed an IC50 (PDE9) of 4.3 nM.
With `CCc1cc2[nH]c(=O)c3cnn(C4CCC4)c3c2cc1C(=O)N1CCN(CCC(F)(F)F)CC1` [Example 162] the IC50 (PDE9) was 7 nM.
`Cc1cc2[nH]c(=O)c3cnn(C4CCCC4)c3c2cc1C(=O)N1CCN(C2CCOCC2)CC1` [Example 58] gave a melting point of 263 to 265 °C.
In the case of `COCCCN1CCN(C(=O)c2cc3c(cc2C)[nH]c(=O)c2cnn(C4CCCC4)c23)C[C@@H]1C` [Example 655], the IC50 (PDE9) is reported as 4.7 nM.
For `Cc1cc2[nH]c(=O)c3cnn(C4CCOCC4)c3c2cc1C(=O)N1CCN(Cc2cccnc2)CC1` [Example 2, 7-methyl-8-{[4-(pyridin-3-ylmethyl)piperazin-1-yl]carbonyl}-1-(tetrahydro-2H-pyran-4-yl)-1,5-dihydro-4H-pyrazolo[4,3-c]quinolin-4-one dihydrochloride], the IC50 (PDE9) was 12 nM.
Work on `COCC(F)(F)CN1CCN(C(=O)c2cc3c(cc2C)[nH]c(=O)c2cnn(C4CCOCC4)c23)CC1` [Example 133] yielded an IC50 (PDE9) of 8.3 nM and a melting point of 212 to 213 °C.
Work on `Cc1cc2[nH]c(=O)c3cnn(C4CCCC4)c3c2cc1C(=O)N1CCN(CCC(F)(F)F)[C@@H](C)C1` [Example 212] yielded an IC50 (PDE9) of 2.4 nM.
`Cc1cc2[nH]c(=O)c3cnn(C4CCOCC4)c3c2cc1C(=O)N1CCN(C2CCCC2)CC1` [Example 255] gave a melting point of 228 to 230 °C.
`Cc1cc2[nH]c(=O)c3cnn([C@H]4CCOC4)c3c2cc1C(=O)N1CCN(CCCOC(F)(F)F)CC1` [Example 219] showed an IC50 (PDE9) of 15 nM.
For `Cc1cc2[nH]c(=O)c3cnn(C4CCOCC4)c3c2cc1C(=O)N1CCN(CCCC(F)(F)F)CC1` [Example 139], the IC50 (PDE9) was 3 nM.
Compound `Cc1cc2[nH]c(=O)c3cnn(C4CCOCC4)c3c2cc1C(=O)N1CCC(OC[C@@H](C)F)CC1` [Example 177] has an IC50 (PDE9) of 9.7 nM and a melting point of 205 to 206 °C.
For `CN1CCN(C(=O)c2ccc3c(c2)[nH]c(=O)c2cnn(C4CCOCC4)c23)CC1c1ccccc1` (stereo not shown) [Example 13], the IC50 (PDE9) was 85 nM and the melting point was 183 to 186 °C.
`CCCOC1CCN(C(=O)c2cc3c(cc2C)[nH]c(=O)c2cnn([C@H]4CCOC4)c23)CC1` [Example 199] showed an IC50 (PDE9) of 4.7 nM.
